Entries after “also recorded” stand apart in the source; their conditions may differ. Read-outs that look alike come from different tables or passages of the source. *1 amine or outer side, *2 acyl side, *3 side chain or, on linkers, in order; H or OH if unused. Where a SMILES comes first, the peptide text is derived from it. Bridges are numbered along the chain shown (N, C = ends). [ ]: non-standard residue; d: D form. The star is where a group is joined. pTerphenylCO(4''-OnC5H11) = CCCCCOc1ccc(-c2ccc(-c3ccc(C(=O)*)cc3)cc2)cc1; Orn(4R-OH,5R-OH) = O=C([C@H](C[C@@H](O)[C@@H](O)N[*:3])N[*:1])[*:2]; hTyr(3S-OH,4S-OH) = N[C@H](C(=O)O)[C@H](O)[C@@H](O)c1ccc(O)cc1; Pro(3S-OH,4S-Me) = C[C@H]1CN[C@H](C(=O)O)[C@H]1O; Hyp = O=C(O)[C@@H]1C[C@@H](O)CN1
Tests used:
[1] = system: zebrafish embryos; details: for Overall effect on embryonic development: clinically relevant concentrations (Cmax); for Pericardial Effusion Rate(%): zebrafish, in vivo; for Mortality rate (MR) / Pericardial effusion (percentage of treated larvae): 1 µM; for Mortality rate (MR): average percentage of larvae that died before imaging; for Overall effect on embryonic development / cardiovascular system: screening concentration; for Effect on heart functionality: clinically relevant doses (Cmax)
[2] = read-out: Cmax (highest concentration detected in blood plasma), humans; cited from earlier work
[3] = system: inflammatory and immune response gene expression; assay type: in vivo, zebrafish (Danio rerio); details: for Inflammatory response related gene expression upon SARS-CoV-2 spike protein treatment: with spike protein; for Inflammatory gene response in the absence of spike protein: without spike protein, vs DMSO
[4] = system: zebrafish larvae; assay: Behavioral assay (bright/dark locomotion test, DanioVision); details: for Effect on swimming behavior: screening concentration 1 µM (Ivermectin 0.5 µM)
[5] = with SARS-CoV-2 spike protein, drug 48 h

## C=CC[C@@H]1/C=C(\C)C[C@H](C)C[C@H](OC)[C@H]2O[C@@](O)(C(=O)C(=O)N3CCCC[C@H]3C(=O)O[C@H](/C(C)=C/[C@@H]3CC[C@@H](O)[C@H](OC)C3)[C@H](C)[C@@H](O)CC1=O)[C@H](C)C[C@@H]2OC [Tacrolimus]
[1]; 1 µM screening
  Effect on ejection fraction: increase

## 17α-Hydroxyprogesterone
[1]; 1 µM screening
  Effect on body length: larval overgrowth

## CC(C)C(=O)OC[C@H]1O[C@@H](n2ccc(NO)nc2=O)[C@H](O)[C@@H]1O [Molnupiravir]
[1]
  Overall effect on embryonic development: severe adverse effects
  Pericardial Effusion Rate(%): 0.00%
[2]
  Cmax: 0.04 µM
[3]; [5]
  ccl20a.3 levels: significantly reduced
  il4 expression: successfully downregulated
  ptg expression: upregulated to control levels
[3]
  Inflammatory response related gene expression upon SARS-CoV-2 spike protein treatment: counteracted
  Inflammatory gene response in the absence of spike protein: alter the inflammatory gene response

## O=C(Nc1ccc([N+](=O)[O-])cc1Cl)c1cc(Cl)ccc1O [Niclosamide]
[1]
  Mortality rate (MR): over 10%

## O=C(Nc1cc(Cl)cc(Cl)c1O)c1c(O)c(Cl)cc(Cl)c1Cl [Oxyclozanide]
[4]
  Effect on swimming behavior: effect

## Ivermectin
[1]; 0.5 µM
  Mortality: mortality disappeared
[1]; 1 µM screening
  Effect on body length: highest reduction
[1]
  Mortality rate (MR): over 10%
  Overall effect on embryonic development / cardiovascular system: severely affected embryonic development
[4]; 0.5 µM
  Effects on larval behavior: still observed effects
[4]
  Effect on swimming behavior: most severe effects

## Cc1ccc(C(=O)Nc2ccc(CN3CCN(C)CC3)c(C(F)(F)F)c2)cc1C#Cc1cnc2cccnn12 [Ponatinib]
[1]
  Pericardial effusion (percentage of treated larvae): 100%
[1]; 1 µM screening
  Effect on body length: highest reduction
[4]
  Effect on swimming behavior: effect

## CNC(=O)c1cc(Oc2ccc(NC(=O)Nc3ccc(Cl)c(C(F)(F)F)c3)c(F)c2)ccn1 [Regorafenib]
[1]; 1 µM screening
  Effect on ISV formation: strong inhibition

## COc1ccc(CCN2CCC(Nc3nc4ccccc4n3Cc3ccc(F)cc3)CC2)cc1 [Astemizole]
[1]
  Pericardial effusion (percentage of treated larvae): 94.4%
  Mortality rate (MR): over 10%
[1]; 1 µM screening
  Effect on ISV area: negative effects
  Effect on body length: highest reduction

## O=c1[nH]c2ccccc2n1C1CCN(CCCC(c2ccc(F)cc2)c2ccc(F)cc2)CC1 [Pimozide]
[1]
  Pericardial effusion (percentage of treated larvae): 100%
  Mortality rate (MR): over 10%
[1]; 1 µM screening
  Effect on ISV area: negative effects
  Effect on body length: highest reduction

## NC(=O)c1ncn([C@@H]2O[C@H](CO)[C@@H](O)[C@H]2O)n1 [Ribavirin]
[1]; 1 µM screening
  Effect on ISV area: mildly reduced

## CC(C)c1nc(CN(C)C(=O)N[C@H](C(=O)N[C@@H](Cc2ccccc2)C[C@H](O)[C@H](Cc2ccccc2)NC(=O)OCc2cncs2)C(C)C)cs1 [Ritonavir]
[1]; at Cmax
  Effect on ejection fraction: altered
  Effect on heart rate: altered
[1]
  Overall effect on embryonic development: overall little embryonic alterations
  Pericardial Effusion Rate(%): 8.70%
[2]
  Cmax: 15.2 µM
[3]
  Inflammatory response related gene expression upon SARS-CoV-2 spike protein treatment: counteracted
  Inflammatory gene response in the absence of spike protein: alter the inflammatory gene response

## Cc1cccc(/C=N/Nc2cc(N3CCOCC3)nc(OCCc3ccccn3)n2)c1 [Apilimod]
[1]
  Mortality rate (MR): over 10%
[4]
  Effect on swimming behavior: effect

## S=C(NCc1ccc2c(c1)OCO2)N1CCN(c2ncnc3c2oc2ccccc23)CC1 [Amuvatinib]
[4]
  Effect on swimming behavior: effect

## NC(=O)c1nc(F)c[nH]c1=O [Favipiravir]
[1]; 1 µM screening
  Effect on body length: mild effect

## C[C@@H](c1nc(-c2ccc(C#N)cc2)cs1)[C@](O)(Cn1cncn1)c1ccc(F)cc1F [Ravuconazole]
[4]
  Effect on swimming behavior: effect

## COC(=O)C1=C(C)NC(C)=C(C(=O)OCCN2CCN(C(c3ccccc3)c3ccccc3)CC2)C1c1cccc([N+](=O)[O-])c1 (stereo not drawn) [Manidipine]
[1]
  Mortality rate (MR): over 10%

## COc1cc2nccc(Oc3ccc(NC(=O)C4(C(=O)Nc5ccc(F)cc5)CC4)cc3)c2cc1OC [Cabozantinib]
[1]; 1 µM screening
  Effect on ISV formation: strong inhibition
[4]
  Effect on swimming behavior: effect

## Nc1nc(Nc2ccc3c(c2)CC[C@@H](N2CCCC2)CC3)nn1-c1cc2c(nn1)-c1ccccc1CCC2 [Bemcentinib]
[4]
  Effect on swimming behavior: effect

## CCS(=O)(=O)N1CC(CC#N)(n2cc(-c3ncnc4[nH]ccc34)cn2)C1 [Baricitinib]
[1]; at Cmax, mean of morphological and behavioral assay
  Mean Mortality(%): 18.3%
[1]
  Effect on heart functionality: reduced heart functionality
  Pericardial Effusion Rate(%): 9.30%
[4]; at Cmax
  Effect on motility / swimming behavior / embryo activity: effects on embryo activity; also recorded: alterations; also recorded: affected
[2]
  Cmax: 0.144 µM
[3]; [5]
  ccl20a.3 levels: significantly reduced
[3]
  Inflammatory response related gene expression upon SARS-CoV-2 spike protein treatment: counteracted
  Inflammatory gene response in the absence of spike protein: alter the inflammatory gene response

## Cc1cccc(C)c1OCC(=O)N[C@@H](Cc1ccccc1)[C@@H](O)C[C@H](Cc1ccccc1)NC(=O)[C@H](C(C)C)N1CCCNC1=O [Lopinavir]
[1]; 1 µM screening
  Effect on ejection fraction: reduced

## CC(C)C[C@H](NC(=O)[C@@H](NC(=O)c1cccc(-c2ccccc2)n1)[C@@H](C)O)B(O)O [Delanzomib]
[4]
  Effect on swimming behavior: effect

## CCN(CCO)CCCC(C)Nc1ccnc2cc(Cl)ccc12 (stereo not drawn) [Hydroxychloroquine]
[1]; 1 µM screening
  Effect on ISV area: significant reductions
  Effect on ejection fraction: significant reductions
[1]
  Overall effect on embryonic development / cardiovascular system: mild defects on the cardiovascular system

## CNC(=O)c1cc(Oc2ccc(NC(=O)Nc3ccc(Cl)c(C(F)(F)F)c3)cc2)ccn1 [Sorafenib]
[1]; 1 µM screening
  Effect on ISV formation: strong inhibition

## CCCCCOc1ccc(-c2ccc(-c3ccc(C(=O)N[C@H]4C[C@@H](O)[C@@H](O)NC(=O)[C@@H]5[C@@H](O)[C@@H](C)CN5C(=O)[C@H]([C@@H](C)O)NC(=O)[C@H]([C@H](O)[C@@H](O)c5ccc(O)cc5)NC(=O)[C@@H]5C[C@@H](O)CN5C(=O)[C@H]([C@@H](C)O)NC4=O)cc3)cc2)cc1 [Anidulafungin] ({pTerphenylCO(4''-OnC5H11)}-[Orn(4R-OH,5R-OH)]T[Hyp][hTyr(3S-OH,4S-OH)]T[Pro(3S-OH,4S-Me)]; lactam 1-C)
[4]
  Effect on swimming behavior: effect

## COc1ccc2cc1Oc1ccc(cc1)C[C@H]1c3cc(c(OC)cc3CCN1C)Oc1c(O)c(OC)cc3c1[C@H](C2)N(C)CC3 [Hanfangchin B]
[4]
  Effect on swimming behavior: effect

## CN(C)C(=O)COC(=O)Cc1ccc(OC(=O)c2ccc(NC(=N)N)cc2)cc1 [Camostat]
[4]
  Effect on swimming behavior: effect

## CO[C@@H]1[C@H](N(C)C(=O)c2ccccc2)C[C@H]2O[C@]1(C)n1c3ccccc3c3c4c(c5c6ccccc6n2c5c31)C(=O)NC4 [Midostaurin]
[1]
  Mortality rate (MR): over 10%

## CCC(CC)COC(=O)[C@H](C)N[P@](=O)(OC[C@H]1O[C@@](C#N)(c2ccc3c(N)ncnn23)[C@H](O)[C@@H]1O)Oc1ccccc1 [Remdesivir]
[1]; at Cmax
  Effect on ejection fraction: decrease
  Effect on heart rate: decrease
[1]
  Overall effect on embryonic development: severe adverse effects
  Effect on heart functionality: reduced
  Pericardial Effusion Rate(%): 7.69%
[2]
  Cmax: 4.5 µM
[3]; [5]
  ptg expression: upregulated to control levels
[3]
  Inflammatory response related gene expression upon SARS-CoV-2 spike protein treatment: counteracted
  Inflammatory gene response in the absence of spike protein: broadest effect; also recorded: alter the inflammatory gene response

## CCOC(=O)c1c(CSc2ccccc2)n(C)c2cc(Br)c(O)c(CN(C)C)c12 [Umifenovir]
[1]; 1 µM screening
  Effect on ISV area: mildly reduced
